# Source: patent publication US10619138B2, “Herbicide-resistant hydroxyphenylpyruvate dioxygenases” (BASF SE, priority 2013, dated 2020)
# Where “and” joins values, the source holds several entries; their conditions need not be identical. Equal values may be shown once.
# Legend:
# [1] = tested on: Herpetosiphon HPPD (SEQ ID NO: 26); assay: In vitro HPPD activity assay, tolerance index; format: biochemical, Herpetosiphon aurantiacus; details: normalized on Arabidopsis wild-type HPPD
# Method: (§1) The activity assay for HPPD is based on the analysis of homogentisic acid by reversed phase HPLC.
# (§2) The assay mixture can contain 150 mM potassium phosphate buffer pH 7.0, 50 mM L-ascorbic acid, 100 μM Catalase (Sigma-Aldrich), 1 μM FeSO4 and 0.2 units of purified HPPD enzyme in a total volume of 505 μl. 1 unit is defined as the amount of enzyme that is required to produce 1 nmol of HGA per minute at 20° C.
# (§3) The reaction is allowed to proceed for 45 min at room temperature. The reaction is stopped by the addition of 50 μl of 4.5 M phosphoric acid. The sample is filtered using a […] pore size PVDF filtration device.
# (§4) 5 μl of the cleared sample is analyzed on an UPLC HSS T3 column (particle size 1.8 μm, dimensions 2.1×50 mm; Waters) by isocratic elution using 90% 20 mM NaH2PO4 pH 2.2, 10% methanol (v/v).
# (§5) HGA is detected electrochemically at 750 mV (mode: DC; polarity: positive) and quantified by integrating peak areas (Empower software; Waters).
# (§6) Inhibitors are dissolved in DMSO (dimethylsulfoxide) to a concentration of 0.5 mM. From this stock solution serial five-fold dilutions are prepared in DMSO, which are used in the assay. The respective inhibitor solution accounts for 1% of the assay volume. Thus, final inhibitor concentrations range from 5 μM to 320 pM, respectively. Activities are normalized by setting the uninhibited enzyme activity to 100%. IC50 values are calculated using non-linear regression.
# (§7) Using methods which are described in the above examples or well known in the art, purified, recombinant wildtype HPPD enzymes are characterized with respect to their kinetic properties and sensitivity towards HPPD inhibiting herbicides. Apparent michaelis constants (Km) and maximal reaction velocities (Vmax) are calculated by non-linear regression with the software GraphPad Prism 5 (GraphPad Software, La Jolla, USA) using a substrate inhibition model. […] Weighted means (by standard error) of Km and IC50 values are calculated from at least three independent experiments. The Cheng-Prusoff equation for competitive inhibition (Cheng, Y. C.; Prusoff, W. H. Biochem Pharmacol 1973, 22, 3099-3108) is used to calculate dissociation constants (Ki).
# (§8) Field performance of the HPPD enzyme, which is used as a herbicide tolerance trait may depend not only on its lack of sensitivity towards HPPD inhibiting herbicides but also on its activity. To assess the potential performance of a herbicide tolerance trait a tolerance index (TI) is calculated using the following formula: […]
# (§9) Easy comparison and ranking of each trait is enabled by normalizing tolerance indexes on Arabidopsis wild-type HPPD.
# [2] = tested on: Geodermatophilus HPPD (SEQ ID NO: 32); assay: In vitro HPPD activity assay, tolerance index; format: biochemical, Geodermatophilus obscurus; details: normalized on Arabidopsis wild-type HPPD
# Method: as §1, §2, §3, §4, §5, §6, §7, §8, §9
# [3] = tested on: Nitritalea HPPD (SEQ ID NO: 14); assay: In vitro HPPD activity assay, tolerance index; format: biochemical, Nitritalea halalkaliphila; details: normalized on Arabidopsis wild-type HPPD
# Method: as §1, §2, §3, §4, §5, §6, §7, §8, §9
# [4] = target: T1, Arabidopsis HPPD (SEQ ID NO: 42) (Arabidopsis thaliana, UniProt P93836); assay: In vitro HPPD activity assay (HGA by HPLC), wildtype enzyme characterization; format: biochemical; details: for TI (normalized tolerance index): normalized on Arabidopsis wild-type HPPD, reference enzyme
# T1 construct: Arabidopsis (42); His tag; made in house; host or cells: E. coli BL21 (DE3)
# T1 sequence (P93836 1-445): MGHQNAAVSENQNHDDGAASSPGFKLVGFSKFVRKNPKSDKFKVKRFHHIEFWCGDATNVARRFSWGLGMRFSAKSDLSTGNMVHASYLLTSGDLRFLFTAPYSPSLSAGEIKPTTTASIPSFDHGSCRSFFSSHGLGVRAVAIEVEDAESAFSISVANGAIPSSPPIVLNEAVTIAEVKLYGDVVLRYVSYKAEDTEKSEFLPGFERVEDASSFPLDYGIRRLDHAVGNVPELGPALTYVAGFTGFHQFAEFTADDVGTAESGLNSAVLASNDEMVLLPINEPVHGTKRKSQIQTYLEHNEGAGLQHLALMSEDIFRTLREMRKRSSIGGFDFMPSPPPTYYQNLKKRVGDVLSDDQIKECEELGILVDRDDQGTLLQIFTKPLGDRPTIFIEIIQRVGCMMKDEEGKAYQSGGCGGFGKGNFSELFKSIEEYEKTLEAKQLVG
# Method: as §1, §2, §3, §4, §5
# as §6, with “Thus, final inhibitor concentrations range from 5 μM to 320 pM, respectively.” left out
# as §7, with “experiments.” for “experiments. The Cheng-Prusoff equation for competitive inhibition (Cheng, Y. C.; Prusoff, W. H. Biochem Pharmacol 1973, 22, 3099-3108) is used to calculate dissociation constants (Ki).”
# as §8, §9
# [5] = tested on: Microscilla HPPD (SEQ ID NO: 20); assay: In vitro HPPD activity assay, tolerance index; format: biochemical, Microscilla marina; details: normalized on Arabidopsis wild-type HPPD
# Method: as §1, §2, §3, §4, §5, §6, §7, §8, §9
# [6] = tested on: Acidobacterium HPPD (SEQ ID NO: 30); assay: In vitro HPPD activity assay, tolerance index; format: biochemical, Acidobacterium capsulatum; details: normalized on Arabidopsis wild-type HPPD
# Method: as §1, §2, §3, §4, §5, §6, §7, §8, §9
# [7] = tested on: Belliella HPPD (SEQ ID NO: 12); assay: In vitro HPPD activity assay, tolerance index; format: biochemical, Belliella baltica; details: normalized on Arabidopsis wild-type HPPD
# Method: as §1, §2, §3, §4, §5, §6, §7, §8, §9
# [8] = tested on: Scenedesmus HPPD (SEQ ID NO: 4); assay: In vitro HPPD activity assay, tolerance index; format: biochemical, Scenedesmus obliquus; details: normalized on Arabidopsis wild-type HPPD
# Method: as §1, §2, §3, §4, §5, §6, §7, §8, §9
# [9] = tested on: Algoriphagus HPPD (SEQ ID NO: 22); assay: In vitro HPPD activity assay, tolerance index; format: biochemical, Algoriphagus machipongonensis; details: normalized on Arabidopsis wild-type HPPD
# Method: as §1, §2, §3, §4, §5, §6, §7, §8, §9
SMILES,TI (normalized tolerance index) [1],TI (normalized tolerance index) [2],TI (normalized tolerance index) [3],TI (normalized tolerance index) [4],TI (normalized tolerance index) [5],TI (normalized tolerance index) [6],TI (normalized tolerance index) [7],TI (normalized tolerance index) [8],TI (normalized tolerance index) [9],Ki [4] [nM],TI (tolerance index) ([4]; not normalized)
"CS(=O)(=O)c1ccc(C(=O)C2C(=O)CCCC2=O)c([N+](=O)[O-])c1 [Inhibitor 2, 2-(4-methylsulfonyl-2-nitro-benzoyl)cyclohexane-1,3-dione]",0.4,0.7,0,1,0.2,0.6,0.1,0.1,,,
"CN(c1c(Cl)ccc(C2=C(O)c3ncccc3C(C)(C)S2(=O)=O)c1Cl)S(C)(=O)=O [Inhibitor 4, N-[2,6-dichloro-3-(8-hydroxy-5,5-dimethyl-6,6-dioxo-thiopyrano[4,3-b]pyridin-7-yl)phenyl]-N-methyl-methanesulfonamide]",,,,1,112.0,64 and 64.3,,,132.5,29,23.8E−3
"CSc1c(Cl)cc(F)c(C(=O)Nc2nnnn2C)c1Cl [Inhibitor 11, 2,4-dichloro-6-fluoro-3-methylsulfanyl-N-(1-methyltetrazol-5-yl)benzamide]",0.2,0.2,0,1,0.1,0.1,0,0.3,,,
